From patent US7582652B2, “Kinase inhibitors” (Eli Lilly and Company, priority 2004, dated 2009)

Key:
TNF-α = assay: Inhibition of TNF-α in vivo (LPS-challenged mice); parameters: species or system female Balb/c mice; conditions: p.o., LPS 5 mg/kg i.v. after 2 h, serum 1 h after LPS
Experimental: Compounds are administered p.o. (100, 30, 10 and 3 mg/kg) to female Balb/c mice (5 mice/dose). After 2 h, lipopolysaccharide (LPS, E. coli serotype 0111:B4, 5 mg/kg) is administered i.v. in the tail vein of each mouse. One hour after LPS administration the mice are asphyxiated by CO2 inhalation and bled out via cardiac puncture.
TNF-α/Luminex Detection Assay (Bio-Rad Bio-Plex Kit—Catalog #171-G12221)
Reconstitute the lyophilized premixed TNF-α standard (1 standard tube/two 96-well plates) with 50 μL sterile water (500,000 pg/mL). Gently vortex for 5 seconds, incubate on ice for 30 min, and vortex for 5 seconds before use. Label a set of twelve 1.5 mL tubes with #1-thru #12 and then add the amounts of cell media shown below to the appropriate tubes (standard concentrations are as follows: 50,000; 25,000; 12,500; 6,250; 3,125; 1,562.5; 781.3; 390.6; 195.3; 97.7; 48.8; and 24.4 pg/mL). Vortex the premixed anti-cytokine conjugated beads (25×) vigorously for 30 seconds. Dilute the anti-cytokine conjugated beads to a 1× concentration using 1× Bio-Plex Assay Buffer. […] Read standards and samples on Luminex machine. These intensity readings are then converted to picogram/milliliter units based on a 12-point standard curve created in duplicate using a four-parameter logistic regression method (Bio-Plex Manager 2.0, Bio-Rad), and the IC50 calculated. […]

[1] = system: TNF-α synthesis in synovial lavage fluid; assay: Effect on intra-articular LPS induced TNF-α; format: in vivo, female Lewis rats
Experimental: Effect on Intra-articular LPS Induced TNF-α
Intra-articular injection of LPS into rat ankles induces the synthesis of TNF-α, which can be measured in synovial lavage fluid. High levels of TNF-α are detectable within 2 hours. Since the joint is the site where arthritis develops, this model can rapidly determine whether an orally administered compound has an effect on an inflammatory response in the synovium.
Six female Lewis rats (150-200 g) are place in each treatment group. The animals are given vehicle (1% NaCarboxymethylcellulose-0.25% Tween 80) or test compound (1 mg/kg, 3 mg/kg, 10 mg/kg, and 30 mg/kg) orally. One hour later, 10 μl LPS (10 μg) is administered intra-articularly into the right ankle of each rat, while the left ankle receives 10 μL of saline. After two hours, each ankle is lavaged with 100 μL of saline. The lavage is collected and stored at −80° C. • Group#1: Vehicle (1% NaCMC-0.25% Tween 80, 1 mL, PO) • Group#2: Test compound (1 mg/kg, 1 mL, PO) • Group#3: Test compound (3 mg/kg, 1 mL, PO) • Group#4: Test compound (10 mg/kg, 1 mL, PO) • Group#5: Test compound (30 mg/kg, 1 mL, PO)
TNF-α is measured with a commercially available ELISA kit (R&D, RTA00).

SMILES: CC(C)(C)Cn1c(N)nc2ccc(-c3nc(C(C)(C)C)[nH]c3-c3ccc(F)cc3)nc21.CS(=O)(=O)O.CS(=O)(=O)O [EXAMPLE 104, Crystalline 5-[2-tert-Butyl-5-(4-fluoro-phenyl)-1H-imidazol-4-yl]-3-(2,2-dimethyl-propyl)-3H-imidazo[4,5-b]pyridin-2-ylamine dimethanesulfonate]
- IC50 (suppressed TNF-α in vivo) (TNF-α): < 1 mg/kg
- inhibition of TNF-α synthesis (in words) ([1]; oral 1, 3, 10, 30 mg/kg): dose-dependent inhibition
- TMED50 (inhibition of TNF-α synthesis) ([1]; oral, LPS intra-articular 1 h later, ankle lavage after 2 h): 0.54 mg/kg
